Reference: US4499082A, “α-Aminoboronic acid peptides” (E. I. Du Pont de Nemours and Company, priority 1983, dated 1985)
Blank lines part the entries; values can stand above or below the compound they belong to.

Target: T1, neutrophil elastase (Homo sapiens, UniProt P08246)
T1 sequence (P08246 30-267): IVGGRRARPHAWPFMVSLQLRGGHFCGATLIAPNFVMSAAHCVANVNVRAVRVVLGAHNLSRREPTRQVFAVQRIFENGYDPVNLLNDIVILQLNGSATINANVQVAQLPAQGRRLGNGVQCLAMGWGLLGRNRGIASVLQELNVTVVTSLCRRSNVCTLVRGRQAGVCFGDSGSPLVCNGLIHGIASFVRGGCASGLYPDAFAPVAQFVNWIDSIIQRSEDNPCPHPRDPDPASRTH
Assay: Inhibition of neutrophil elastase, additional peptide inhibitors preincubated in phosphate buffer (Table 3)
Type: biochemical
Design: Neutrophil elastase was prepared by the procedure described by Baugh. et al; from tissue
Procedure: Additional peptide inhibitors were evaluated by a procedure similar to that described above. Stock solutions of inhibitors (1.00 mM) were prepared in dimethylsulfoxide and compounds were diluted to 0.10 mM with […], pH 7.5, yielding the free boronic acid. After incubation for one hour at about 23°, inhibitors were added to assay solutions (2.00 mL) consisting of […] MeOSuc-Ala-AlaProVal-p-nitroanilide in 0.10M Hepes buffer, pH 7.5, containing 0.50M NaCl. Assays were initiated by addition of 0.50 μg neutrophil elastase. Control assays without inhibitor indicated an initial velocity of 0.0195 min^-1. The value "k" in Table 3, below, is an estimate of the first order rate constant for time-dependent inhibition, as described above for MeOSuc-AlaAlaPro-Boroval-OH (Table 1).

Compound: COC(=O)CCC(=O)NC(Cc1ccccc1)C(=O)NCC(=O)NC(CCC(=O)O)C(=O)NC(B(O)O)C(C)C (stereo not shown) [MeOSuc--Phe--Gly--Glu--Boroval--OH]
% Initial Activity (Conc. 1.0 × 10^-6 M): 52%
k, first order rate constant for time-dependent inhibition (Conc. 1.0 × 10^-6 M): 0.18 min⁻¹

Compound: COC(=O)CCC(=O)N[C@@H](Cc1ccccc1)C(=O)NCC(=O)N[C@@H](CO)C(=O)NC(B(O)O)C(C)C (stereo partly shown) [MeOSuc--Phe--Gly--Ser--Boroval--OH]
% Initial Activity (Conc. 5.0 × 10^-7 M): 78%
k, first order rate constant for time-dependent inhibition (Conc. 5.0 × 10^-7 M): 0.26 min⁻¹

Compound: COC(=O)CCC(=O)NC(CCCCNC(=O)OCc1ccccc1)C(=O)NC(C)C(=O)N1CCCC1C(=O)NC(B(O)O)C(C)C (stereo not shown) [MeOSuc--Lys(Z)--Ala--Pro--Boroval--OH, MeOSuc--Lys(Z)--AlaPro--Boroval--OH]
% Initial Activity (Conc. 5.0 × 10^-8 M): 59%
k, first order rate constant for time-dependent inhibition (Conc. 5.0 × 10^-8 M): 0.54 min⁻¹

Compound: CCC(C)C(NC(=O)C1CCCN1C(=O)C(C)NC(=O)C(C)NC(=O)CCC(=O)OC)B(O)O (stereo not shown) [MeOSuc--Ala--Ala--Pro--Boroile--OH]
% Initial Activity (Conc. 1.0 × 10^-7 M): 60%
k, first order rate constant for time-dependent inhibition (Conc. 1.0 × 10^-7 M): 0.28 min⁻¹

Compound: CC(C)C(NC(=O)C(CO)NC(=O)CNC(=O)C(N)Cc1ccccc1)B(O)O (stereo not shown) [H--Phe--Gly--Ser--Boroval--OH]
% Initial Activity (Conc. 1.0 × 10^-6 M): 75%

Compound: CC(C)C(NC(=O)C1CCCN1C(=O)C(Cc1ccccc1)NC(=O)OC(C)(C)C)B(O)O [Boc--D-Phe--Pro--Boroval--OH]
% Initial Activity (Conc. 2.0 × 10^-7 M): 54%
k, first order rate constant for time-dependent inhibition (Conc. 2.0 × 10^-7 M): 0.35 min⁻¹

Compound: CC(C)C(NC(=O)C(CCC(=O)O)NC(=O)CNC(=O)C(N)Cc1ccccc1)B(O)O (stereo not shown) [H--Phe--Gly--Glu--Boroval--OH]
% Initial Activity (Conc. 2.0 × 10^-6 M): 54%

Continued, values first:

% Initial Activity (Conc. 2.0 × 10^-7 M): 47%
k, first order rate constant for time-dependent inhibition (Conc. 2.0 × 10^-7 M): 0.18 min⁻¹
Compound: CC(C)C(NC(=O)C(Cc1ccccc1)NC(=O)CNC(=O)C(Cc1ccccc1)NC(=O)OCc1ccccc1)B(O)O (stereo not shown) [Z--Phe--Gly--Phe--Boroval--OH]

% Initial Activity (Conc. 1.25 × 10^-7 M): 66%
k, first order rate constant for time-dependent inhibition (Conc. 1.25 × 10^-7 M): 0.17 min⁻¹
Compound: CC(C)C(NC(=O)C(COCc1ccccc1)NC(=O)CNC(=O)C(Cc1ccccc1)NC(=O)OCc1ccccc1)B(O)O (stereo not shown) [Z--Phe--Gly--Ser(OBzl)--Boroval--OH]

% Initial Activity (Conc. 4.0 × 10^-6 M): 51%
Compound: CC(NC(=O)C1CCCN1C(=O)C(Cc1ccccc1)NC(=O)OCc1ccccc1)C(=O)NC(B(O)O)C(C)C (stereo not shown) [Z--Phe--Pro--Ala--Boroval--OH]

% Initial Activity (Conc. 2.0 × 10^-7 M): 55%
k, first order rate constant for time-dependent inhibition (Conc. 2.0 × 10^-7 M): 0.37 min⁻¹
Compound: CC(C)C(NC(=O)C(CCCCNC(=O)OC(C)(C)C)NC(=O)CNC(=O)C(Cc1ccccc1)NC(=O)OCc1ccccc1)B(O)O (stereo not shown) [Z--Phe--Gly--Lys(Boc)--Boroval--OH]

% Initial Activity (Conc. 2.0 × 10^-7 M): 62%
k, first order rate constant for time-dependent inhibition (Conc. 2.0 × 10^-7 M): 0.26 min⁻¹
Compound: CC(C)CC(NC(=O)CNC(=O)C(Cc1ccccc1)NC(=O)OCc1ccccc1)C(=O)NC(B(O)O)C(C)C (stereo not shown) [Z--Phe--Gly--Leu--Boroval--OH]

% Initial Activity (Conc. 1.0 × 10^-7 M): 61%
k, first order rate constant for time-dependent inhibition (Conc. 1.0 × 10^-7 M): 0.20 min⁻¹
Compound: CC(C)C(NC(=O)C(CCC(=O)OCc1ccccc1)NC(=O)CNC(=O)C(Cc1ccccc1)NC(=O)OCc1ccccc1)B(O)O (stereo not shown) [Z--Phe--Gly--Glu(OBzl)--Boroval--OH]

% Initial Activity (Conc. 2.5 × 10^-7 M): 67%
k, first order rate constant for time-dependent inhibition (Conc. 2.5 × 10^-7 M): 0.28 min⁻¹
Compound: CC(C)C(NC(=O)C(CCCCN)NC(=O)CNC(=O)C(Cc1ccccc1)NC(=O)OCc1ccccc1)B(O)O (stereo not shown) [Z--Phe--Gly--Lys--Boroval--OH]
